Assay results from paper PMC9122626 (2020).

How the values were obtained:
[1] = tested on: human telomeric G4 DNA, dAGGG(TTAGGG)3 (DNA, G4) AGGGTTAGGGTTAGGGTTAGGG; assay: ITC; settings: Na+ 100 mM; 298.15 K; 64 μM DNA in cell, 700 μM peptide in syringe
[2] = tested on: ds26 (DNA, duplex) CAATCGGATCGAATTCGATCCGATTG; assay: ITC; settings: Na+ 100 mM
[3] = tested on: human telomeric G4 DNA, dAGGG(TTAGGG)3 (DNA, G4) AGGGTTAGGGTTAGGGTTAGGG; assay: EMSA; settings: 30 μM G4; room temperature; 15-120 μM peptide
[4] = tested on: human telomeric G4 DNA, dAGGG(TTAGGG)3 (DNA, G4) AGGGTTAGGGTTAGGGTTAGGG; assay: CD titration; settings: Na+; aqueous buffer
[5] = tested on: human telomeric G4 DNA, dAGGG(TTAGGG)3 (DNA, G4) AGGGTTAGGGTTAGGGTTAGGG; assay: intrinsic fluorescence titration; settings: 15 μM peptide; 0 to 18.16 μM G4; room temperature
[6] = tested on: human telomeric G4 DNA, dAGGG(TTAGGG)3 (DNA, G4) AGGGTTAGGGTTAGGGTTAGGG; assay: time-resolved fluorescence (TCSPC); settings: 100 mM Na+; 10 mM Tris, pH 7.3, 25 °C; 5.5 μM peptide; 0 to 10.5 μM G4
[7] = tested on: human telomeric G4 DNA, dAGGG(TTAGGG)3 (DNA, G4) AGGGTTAGGGTTAGGGTTAGGG; assay: thiazole orange displacement (fluorescence); settings: 298 K; thiazole orange displaced; 0.25 μM G4, 0.50 μM TO

Question: Which results are given for `N[C@@H](Cc1ccc(O)cc1)C(=O)N[C@@H](CCC(=O)N[C@@H](CCC(=O)O)C(=O)O)C(=O)N[C@@H](CCC(=O)O)C(=O)O` (racemic)?
Answer: Ka [1]: 1.1e+06 M⁻¹; Ka [2]: 9600 M⁻¹; binding [3]: yes; binding [4]: yes; binding [5]: yes; binding [6]: yes; IC50 [7]: ~ 8.4 μM
